Results published in paper PMC6886544.
Where two headings read alike, the source gives them in different places. Values belong to the compound of their own block, whether it stands above or below them.

Assays:
[1] = molecular target: FGFR1 (Homo sapiens, UniProt P11362); assay: SelectScreen kinase profiling, FGFR1; format: biochemical; settings: mean ± SD of one measurement in duplicates
Description: (§1) Kinase profiling of compound 17a at a concentration of 1 µM generated with the SelectScreen® Profiling Service from Life Technologies.
(§2) Figure S2. Kinase profiling of compound 17a, Illustration as waterfall plot. 9 Kinases harboring a Cysteine isostructural to Cys797 in EGFR are highlighted
(§3) Kinase % inhibition Kinase % inhibition […]
(§4) aValues are the mean ± SD of one measurement in duplicates; bKinases harboring a Cysteine isostructural to Cys797 […]
(§5) (1 picture or pasted object on this page, not shown here)

[2] = tested on: H1975 cells (EGFR-L858R/T790M); assay: CellTiter-Glo viability assay, H1975; settings: Homo sapiens, NCI-H1975, 96 h, read-out: EGFR CTG EC50 H1975, H1975, 96 hours, CellTiter-Glo
[3] = tested on: HCC827 cells (EGFR-delE746_A750); assay: CellTiter-Glo viability assay, HCC827; format: cell-based; settings: Homo sapiens; HCC827, 96 hours, CellTiter-Glo; read-out: EGFR CTG EC50 HCC827;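 also: luminescence from ATP content as a measure of metabolically active cells, in RPMI with 10% FBS, compound added as serial dilutions after 24 h of preculture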
[4] = molecular target: T1, EGFR-wt (Homo sapiens, UniProt P00533); assay: HTRF KinEASE-TK activity-based assay, EGFR-wt; settings: EGFR HTRF IC50 wt, ATP at Km (9.5 µM), 30 min preincubation; mean ± SD of three independent measurements in duplicates
T1 sequence (P00533 25-1210): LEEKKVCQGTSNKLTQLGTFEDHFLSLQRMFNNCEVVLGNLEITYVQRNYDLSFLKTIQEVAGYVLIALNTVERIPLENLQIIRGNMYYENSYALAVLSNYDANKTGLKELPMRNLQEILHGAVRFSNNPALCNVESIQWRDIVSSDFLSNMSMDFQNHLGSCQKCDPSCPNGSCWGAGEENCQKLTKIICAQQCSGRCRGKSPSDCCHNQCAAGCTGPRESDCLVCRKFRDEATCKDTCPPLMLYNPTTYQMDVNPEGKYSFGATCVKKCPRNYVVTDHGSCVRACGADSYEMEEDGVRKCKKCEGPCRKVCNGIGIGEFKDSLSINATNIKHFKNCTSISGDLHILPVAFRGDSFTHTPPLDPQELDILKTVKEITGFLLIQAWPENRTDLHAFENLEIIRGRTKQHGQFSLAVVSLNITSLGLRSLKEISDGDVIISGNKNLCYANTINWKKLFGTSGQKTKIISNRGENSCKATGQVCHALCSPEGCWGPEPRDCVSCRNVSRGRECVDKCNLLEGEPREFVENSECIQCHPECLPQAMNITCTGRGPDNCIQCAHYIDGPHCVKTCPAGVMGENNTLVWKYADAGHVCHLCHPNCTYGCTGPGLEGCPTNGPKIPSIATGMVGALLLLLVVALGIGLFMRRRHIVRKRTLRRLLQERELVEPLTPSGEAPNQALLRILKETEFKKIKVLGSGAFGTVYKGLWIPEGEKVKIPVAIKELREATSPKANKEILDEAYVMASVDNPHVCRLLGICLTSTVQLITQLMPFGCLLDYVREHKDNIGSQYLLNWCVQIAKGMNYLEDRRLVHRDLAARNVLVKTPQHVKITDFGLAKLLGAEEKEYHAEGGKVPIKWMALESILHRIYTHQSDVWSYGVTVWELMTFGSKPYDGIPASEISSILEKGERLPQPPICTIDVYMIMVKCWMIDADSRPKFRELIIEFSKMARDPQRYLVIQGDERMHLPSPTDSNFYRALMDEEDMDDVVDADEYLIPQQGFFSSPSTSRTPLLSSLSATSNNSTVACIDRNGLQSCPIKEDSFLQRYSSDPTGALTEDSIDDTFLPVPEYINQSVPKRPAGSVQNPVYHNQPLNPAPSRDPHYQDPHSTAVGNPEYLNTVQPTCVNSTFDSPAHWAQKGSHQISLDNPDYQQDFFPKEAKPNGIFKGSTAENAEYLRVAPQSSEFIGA

[5] = molecular target: ACVR1B (Homo sapiens, UniProt P36896); assay: SelectScreen kinase profiling, ACVR1B; format: biochemical; settings: mean ± SD of one measurement in duplicates
Description: as §1, §2, §3, §4, §5

[6] = tested on: A549 cells (KRAS mutant); assay: CellTiter-Glo viability assay, A549; settings: Homo sapiens
[7] = molecular target: BMX (Homo sapiens, UniProt P51813); assay: SelectScreen kinase profiling, BMX; format: biochemical; settings: mean ± SD of one measurement in duplicates
Description: as §1, §2, §3, §4, §5

[8] = molecular target: EPHA1 (Homo sapiens, UniProt P21709); assay: SelectScreen kinase profiling, EPHA1; format: biochemical; settings: mean ± SD of one measurement in duplicates
Sequence of EPHA1 (P21709 26-976): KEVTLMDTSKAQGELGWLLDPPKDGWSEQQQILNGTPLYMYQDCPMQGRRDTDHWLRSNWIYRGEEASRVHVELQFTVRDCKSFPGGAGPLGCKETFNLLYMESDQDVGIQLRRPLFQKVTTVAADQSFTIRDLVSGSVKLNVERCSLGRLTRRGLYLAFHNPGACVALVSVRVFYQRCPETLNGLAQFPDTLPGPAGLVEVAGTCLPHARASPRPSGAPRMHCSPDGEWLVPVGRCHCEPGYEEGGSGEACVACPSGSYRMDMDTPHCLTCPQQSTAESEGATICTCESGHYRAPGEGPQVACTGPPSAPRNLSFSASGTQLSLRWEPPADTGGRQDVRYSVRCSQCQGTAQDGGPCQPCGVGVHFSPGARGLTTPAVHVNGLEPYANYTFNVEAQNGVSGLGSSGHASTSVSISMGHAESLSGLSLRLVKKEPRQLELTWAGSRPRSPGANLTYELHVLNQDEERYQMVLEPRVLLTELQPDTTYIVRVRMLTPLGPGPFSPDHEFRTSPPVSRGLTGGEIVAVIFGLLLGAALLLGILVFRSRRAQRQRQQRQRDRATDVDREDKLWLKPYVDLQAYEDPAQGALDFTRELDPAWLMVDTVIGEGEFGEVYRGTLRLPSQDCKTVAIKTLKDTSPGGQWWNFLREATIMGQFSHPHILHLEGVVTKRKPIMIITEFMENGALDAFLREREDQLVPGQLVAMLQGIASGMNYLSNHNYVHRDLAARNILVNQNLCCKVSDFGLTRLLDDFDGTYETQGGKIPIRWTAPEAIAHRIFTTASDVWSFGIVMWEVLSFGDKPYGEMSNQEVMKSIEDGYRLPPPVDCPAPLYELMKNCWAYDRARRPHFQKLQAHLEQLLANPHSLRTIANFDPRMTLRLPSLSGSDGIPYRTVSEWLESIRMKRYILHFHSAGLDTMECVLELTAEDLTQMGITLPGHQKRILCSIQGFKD
Description: as §1, §2, §3, §4, §5

[9] = tested on: H358 cells (KRAS mutant); assay: CellTiter-Glo viability assay, H358; format: cell-based; settings: Homo sapiens, NCI-H358;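 also: viable cell number estimated from ATP-dependent luminescence following exposure to serially diluted inhibitor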
[10] = molecular target: FGR (Homo sapiens, UniProt P09769); assay: SelectScreen kinase profiling, FGR; format: biochemical; settings: mean ± SD of one measurement in duplicates
Description: as §1, §2, §3, §4, §5

[11] = molecular target: SRC-N1 (Homo sapiens, UniProt P12931); assay: SelectScreen kinase profiling, SRC-N1; format: biochemical; settings: mean ± SD of one measurement in duplicates
Description: as §1, §2, §3, §4, §5

[12] = molecular target: YES1 (Homo sapiens, UniProt P07947); assay: SelectScreen kinase profiling, YES1; format: biochemical; settings: mean ± SD of one measurement in duplicates
Description: as §1, §2, §3, §4, §5

[13] = Microsomal stability (phase I), mouse; format: in vitro ADME; settings: mouse liver microsomes, up to 60 minutes, 37 °C
Description: Microsomal stability (phase I) assay.
Metabolic stability under oxidative conditions was measured in liver microsomes from different
time up to 50 minutes (HLM) or 60 minutes (MLM) at 37 °C. Based on the compound half-life t1/2,
the in vitro intrinsic clearance CLint was calculated. […]

[14] = molecular target: T1, EGFR-wt; assay: SelectScreen kinase profiling, EGFR-wt; format: biochemical; settings: mean ± SD of one measurement in duplicates
Description: as §1, §2, §3, §4, §5

[15] = molecular target: ABL2 (Homo sapiens, UniProt P42684); assay: SelectScreen kinase profiling, ABL2; format: biochemical; settings: mean ± SD of one measurement in duplicates
Description: as §1, §2, §3, §4, §5

[16] = molecular target: T2, EGFR-L858R/T790M (Homo sapiens, UniProt P00533, L858R/T790M); assay: HTRF KinEASE-TK activity-based assay, EGFR-L858R/T790M; settings: EGFR HTRF IC50 L858R/T790M, ATP at Km (4 µM), 30 min preincubation; mean ± SD of three independent measurements in duplicates
T2 sequence (P00533 25-1210 T790M/L858R): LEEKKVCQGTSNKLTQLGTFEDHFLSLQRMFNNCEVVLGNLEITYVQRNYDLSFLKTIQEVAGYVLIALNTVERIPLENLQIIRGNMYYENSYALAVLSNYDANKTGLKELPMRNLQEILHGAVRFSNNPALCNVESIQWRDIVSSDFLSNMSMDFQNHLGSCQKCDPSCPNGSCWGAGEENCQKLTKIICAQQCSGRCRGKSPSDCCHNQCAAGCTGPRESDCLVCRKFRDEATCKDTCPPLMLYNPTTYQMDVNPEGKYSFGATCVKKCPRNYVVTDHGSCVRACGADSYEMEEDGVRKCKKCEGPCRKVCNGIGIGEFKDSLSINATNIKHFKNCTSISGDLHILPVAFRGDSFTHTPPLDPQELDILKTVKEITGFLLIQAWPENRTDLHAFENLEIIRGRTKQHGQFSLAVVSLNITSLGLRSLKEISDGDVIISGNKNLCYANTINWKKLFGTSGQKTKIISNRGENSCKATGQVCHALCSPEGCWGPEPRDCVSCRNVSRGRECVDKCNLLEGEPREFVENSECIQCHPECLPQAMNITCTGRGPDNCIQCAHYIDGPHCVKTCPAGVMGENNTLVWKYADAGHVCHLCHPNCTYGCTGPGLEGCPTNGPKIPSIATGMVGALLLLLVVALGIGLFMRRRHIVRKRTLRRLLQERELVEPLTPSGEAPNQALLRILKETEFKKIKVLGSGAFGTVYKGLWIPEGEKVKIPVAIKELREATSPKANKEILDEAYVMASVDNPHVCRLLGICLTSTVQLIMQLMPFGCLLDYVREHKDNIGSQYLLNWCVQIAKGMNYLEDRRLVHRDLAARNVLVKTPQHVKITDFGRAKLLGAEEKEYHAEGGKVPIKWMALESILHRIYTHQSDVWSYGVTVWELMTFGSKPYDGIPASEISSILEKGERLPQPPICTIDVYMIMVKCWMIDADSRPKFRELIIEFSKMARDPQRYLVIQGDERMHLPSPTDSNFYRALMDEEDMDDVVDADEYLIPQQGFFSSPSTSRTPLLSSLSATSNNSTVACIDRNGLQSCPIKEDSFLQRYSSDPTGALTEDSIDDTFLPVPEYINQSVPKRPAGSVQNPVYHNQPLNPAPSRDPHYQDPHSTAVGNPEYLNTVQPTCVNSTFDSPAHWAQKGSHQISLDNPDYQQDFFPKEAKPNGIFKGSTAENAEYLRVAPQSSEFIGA

[17] = molecular target: EGFR-L858R (Homo sapiens, UniProt P00533, L858R); assay: HTRF KinEASE-TK activity-based assay, EGFR-L858R
Sequence of EGFR-L858R (P00533 25-1210 L858R): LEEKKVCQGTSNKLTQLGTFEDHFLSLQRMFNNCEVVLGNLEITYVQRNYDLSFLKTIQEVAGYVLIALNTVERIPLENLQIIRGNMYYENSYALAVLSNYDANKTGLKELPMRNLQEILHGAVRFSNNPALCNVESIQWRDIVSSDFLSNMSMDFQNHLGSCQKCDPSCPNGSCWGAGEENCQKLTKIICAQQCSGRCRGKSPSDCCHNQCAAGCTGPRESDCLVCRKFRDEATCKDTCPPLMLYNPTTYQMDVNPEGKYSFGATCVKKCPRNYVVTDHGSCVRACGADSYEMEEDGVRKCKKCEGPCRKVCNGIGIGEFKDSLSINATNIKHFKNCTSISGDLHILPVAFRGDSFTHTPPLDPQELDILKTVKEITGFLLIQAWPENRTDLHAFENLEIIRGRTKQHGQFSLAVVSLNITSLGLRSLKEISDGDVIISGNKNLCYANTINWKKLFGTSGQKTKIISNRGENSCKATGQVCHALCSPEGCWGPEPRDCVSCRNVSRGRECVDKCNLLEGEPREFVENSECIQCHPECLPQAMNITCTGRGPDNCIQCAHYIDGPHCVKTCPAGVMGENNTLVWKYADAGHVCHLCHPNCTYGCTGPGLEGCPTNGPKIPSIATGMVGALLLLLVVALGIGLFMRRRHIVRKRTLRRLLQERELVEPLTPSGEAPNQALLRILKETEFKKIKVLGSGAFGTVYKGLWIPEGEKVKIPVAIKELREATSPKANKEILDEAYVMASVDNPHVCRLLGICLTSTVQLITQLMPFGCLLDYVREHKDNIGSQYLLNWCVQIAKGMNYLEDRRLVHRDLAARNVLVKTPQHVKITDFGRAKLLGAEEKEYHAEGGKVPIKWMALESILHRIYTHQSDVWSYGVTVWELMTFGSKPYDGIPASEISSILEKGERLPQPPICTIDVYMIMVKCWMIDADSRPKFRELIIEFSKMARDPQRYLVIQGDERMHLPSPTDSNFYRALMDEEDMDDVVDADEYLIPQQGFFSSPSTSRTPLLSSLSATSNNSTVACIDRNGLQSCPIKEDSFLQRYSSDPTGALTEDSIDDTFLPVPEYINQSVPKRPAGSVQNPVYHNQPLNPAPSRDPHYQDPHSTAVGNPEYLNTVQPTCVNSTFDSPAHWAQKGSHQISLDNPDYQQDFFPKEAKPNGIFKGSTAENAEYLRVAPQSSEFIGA

[18] = molecular target: ABL1-G250E (Homo sapiens, UniProt P00519, G250E); assay: SelectScreen kinase profiling, ABL1-G250E; format: biochemical; settings: mean ± SD of one measurement in duplicates
Description: as §1, §2, §3, §4, §5

[19] = molecular target: JAK3 (Homo sapiens, UniProt P52333); assay: SelectScreen kinase profiling, JAK3; format: biochemical; settings: mean ± SD of one measurement in duplicates
Description: as §1, §2, §3, §4, §5

[20] = molecular target: ROS1 (Homo sapiens, UniProt P08922); assay: SelectScreen kinase profiling, ROS1; format: biochemical; settings: mean ± SD of one measurement in duplicates
Description: as §1, §2, §3, §4, §5

[21] = molecular target: ITK (Homo sapiens, UniProt Q08881); assay: SelectScreen kinase profiling, ITK; format: biochemical; settings: mean ± SD of one measurement in duplicates
Sequence of ITK (Q08881 whole entry): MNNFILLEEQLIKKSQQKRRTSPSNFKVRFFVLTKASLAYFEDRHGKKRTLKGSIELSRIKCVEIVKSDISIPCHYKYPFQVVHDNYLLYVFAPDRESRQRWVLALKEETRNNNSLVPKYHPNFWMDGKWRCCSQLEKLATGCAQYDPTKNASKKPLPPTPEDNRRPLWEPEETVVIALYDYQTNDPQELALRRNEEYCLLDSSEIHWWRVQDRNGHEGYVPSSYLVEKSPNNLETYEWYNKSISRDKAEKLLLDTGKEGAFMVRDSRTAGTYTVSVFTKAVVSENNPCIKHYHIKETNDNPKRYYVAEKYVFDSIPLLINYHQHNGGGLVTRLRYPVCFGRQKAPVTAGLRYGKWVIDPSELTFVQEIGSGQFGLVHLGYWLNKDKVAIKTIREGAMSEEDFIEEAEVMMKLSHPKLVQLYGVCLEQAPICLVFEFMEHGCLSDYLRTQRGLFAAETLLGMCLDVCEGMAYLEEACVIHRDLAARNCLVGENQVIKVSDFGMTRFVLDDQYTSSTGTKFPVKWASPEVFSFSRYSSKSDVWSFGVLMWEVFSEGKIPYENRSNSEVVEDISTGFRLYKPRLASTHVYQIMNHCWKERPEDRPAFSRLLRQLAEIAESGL
Description: as §1, §2, §3, §4, §5

[22] = tested on: A431 cells (EGFR wild type); assay: CellTiter-Glo viability assay, A431
[23] = molecular target: LCK (Homo sapiens, UniProt P06239); assay: SelectScreen kinase profiling, LCK; format: biochemical; settings: mean ± SD of one measurement in duplicates
Description: as §1, §2, §3, §4, §5

[24] = molecular target: T2, EGFR-L858R/T790M; assay: Kinetic characterization (Ki, kinact), EGFR-L858R/T790M
[25] = Caco-2 assay; format: in vitro ADME; settings: human
Description: For Caco-2 cell assay, a 10 mM DMSO stock of the compound was diluted to a final concentration of 5 μM in HBSS buffer pH 7.4 and incubated for 2 hours at 37 °C and 5% CO2 on a monolayer of Caco-2 cells (ATCC) that had been grown on a transwell membrane (Millipore, Schwalbach, Germany) for 21 days. The compound concentration was measured in the receiver as well as the donor well. Apparent permeability (Papp) from either the apical to basolateral direction or vice versa […]
is the donor drug concentration at t = 0, and dQ/dt is the amount of drug transported within the given time period of 2 hours. […]

[26] = A549, 96 h, read-out: KRAS CTG EC50 A549
[27] = H358, 96 hours, CellTiter-Glo, read-out: KRAS CTG EC50 H358
[28] = Homo sapiens, A-431, 96 h, read-out: EGFR CTG EC50 A431, A431, 96 hours, CellTiter-Glo

inhibition at 1 µM [1]: 72 ± 4%
EC50 [2]: 137 ± 51 nM
EC50 [3]: < 14 nM
IC50 [4]: 15 ± 10 nM
inhibition at 1 µM [5]: 89%
EC50 [6, 26]: 2500 ± 1630 nM
inhibition at 1 µM [7]: 89 ± 1%
inhibition at 1 µM [8]: 72 ± 2%
EC50 [9, 27]: 2910 ± 1470 nM
inhibition at 1 µM [10]: 92 ± 1%
inhibition at 1 µM [11]: 95 ± 1%
inhibition at 1 µM [12]: 93 ± 1%
microsomal CLint at 3 µM [13]: 26 µL/min/mg
inhibition at 1 µM [14]: 97 ± 2%
inhibition at 1 µM [15]: 86%
IC50 [16]: 4 ± 1.7 nM
IC50 [17]: 2.3 ± 0.4 nM
inhibition at 1 µM [18]: 96%
inhibition at 1 µM [19]: 91 ± 2%
inhibition at 1 µM [20]: 92%
inhibition at 1 µM [21]: 70 ± 2%
EC50 [22, 28]: 700 nM
EC50 ([22]; read-out: EGFR CTG EC50 A431, A431, 96 hours, CellTiter-Glo): 768 ± 271 nM
inhibition at 1 µM [23]: 80%
SMILES: C=CC(=O)Nc1cccc(-c2c(-c3ccc(CN4CCN(C)CC4)cc3)[nH]c3ncnc(OC)c23)c1 [Compound 17a]

EC50 [2]: 51 ± 19 nM
Ki [24]: 0.4 ± 0.1 nM
kinact [24]: 0.00283 s⁻¹
kinact/KI [24]: 8.08e+06 ± 770000 M⁻¹ s⁻¹
EC50 [3]: < 14 nM
IC50 [4]: 0.2 ± 0.2 nM
efflux ratio at 2 h, 5 µM ([25]; Caco-2, pH 7.4, efflux ratio, read-out: Caco-2: ratio (BA) : (AB)): 3.1
Papp A→B at 2 h, 5 μM ([25]; Caco-2, apical to basolateral, 5 μM, pH 7.4, 2 hours, read-out: Caco-2: Papp AB): 1.2 ×10⁻⁶ cm/s
Papp B→A at 2 h, 5 μM ([25]; Caco-2, basolateral to apical, 5 μM, pH 7.4, 2 hours, read-out: Caco-2: Papp BA): 3.6 ×10⁻⁶ cm/s
EC50 [6, 26]: 3650 ± 1750 nM
EC50 ([6]; A549, read-out: EC50 A549): 3700 nM
EC50 [9, 27]: 3690 ± 1460 nM
EC50 ([9]; H358, rounded value in running text, read-out: EC50 H358): 3700 nM
microsomal CLint at 3 µM [13]: 46 µL/min/mg
IC50 [16]: < 0.1 nM
IC50 [17]: < 0.1 nM
EC50 [22, 28]: 1680 ± 402 nM
EC50 ([22]; Homo sapiens, A-431, read-out: EC50 A431, A431, rounded value in running text): 1700 nM
SMILES: C=CC(=O)Nc1cccc(-c2c(-c3ccc(N4CCN(C)CC4)cc3)[nH]c3ncnc(OCC(C)C)c23)c1 [Compound 19h]
